Results published in patent US10428104B2, “Substituted nucleoside derivatives useful as anticancer agents” (Pfizer Inc., priority 2015, dated 2019).

Target: PRMT5/MEP50 protein complex (Homo sapiens (Human), UniProt O14744)
Assay: PRMT5 biochemical assay (3H-SAM methylation of H4(1-21) peptide, filter plate scintillation counting)
Conditions: PRMT5 enzyme inhibition; 10 nM PRMT5/MEP50 complex, 200 nM H4(1-21) peptide, 1 uM SAM, 25 minute incubation at room temperature
Method: Following dilution, 1 ul was added to an empty 96-well microtiter plate. PRMT5/MEP50 protein complex was combined with H4(1-21) peptide ([…]) in PRMT5 assay buffer (50 mM Tris pH 8.5, 50 mM NaCl, 5 mM MgCl2, 1 mM EDTA, 1 mM TCEP) and 44 ul was added to the microtiter plate containing compound. S-Adenosyl-L-methionine (SAM) was prepared by combining ^3H labelled SAM with unlabelled SAM in PRMT5 assay buffer such that the final SAM concentration was 10 uM and the specific activity was 0.2 uCi/ul. The reaction was initiated by adding 5 ul of SAM stock to the microtiter plate. The final reaction conditions were 10 nM PRMT5/MEP50 complex, 200 nM peptide and 1 uM SAM. Following a 25 minute incubation at room temperature, the reaction was stopped with the addition of 100 uL of 20% TCA. The 3H-peptide product was captured using a 96-well filter plate (MSIPN4B, Millipore) and washed 5 times with PBS buffer. Scintillation fluid (100 ul) was added to the dried filter plate and counted in a liquid scintillation counter. IC50 values were determined by fitting the data to the standard 4-parameter dose response equation using Pfizer proprietary software.
In the final construct PRMT5 ORF was under control of polyhedrin promoter (polH) while MEP50 ORF was under control of p10 promoter.
Viruses were generated using standard Bac-to-Bac viral generation protocols (Life Technologies) and amplified to high-titer passage two (P2) stocks. Protein over expression was conducted in exponentially growing Sf21 cells infected at 2×106 with P2 viral stock at MOI=1 of PRMT5-Mep50 dual construct virus and Mep50 construct virus at 1:1 ratio. The co-expression protocol was used to supplement additional Mep50 for FlagPRMT5-Mep50 heterodimer formation. Cells were harvested at 72 h post infection by centrifugation and frozen pellet was stored at −80° C.
FlagPRMT5-Mep50 complex was purified from cell lysate using Flag affinity chromatography. Cell were lyzed in 50 mM Tris 7.5, 200 mM NaCl, 10% glycerol, 0.25 mM TCEP supplemented with EDTA-free protease inhibitor cocktail (Roche). 1.5 ml of lysis buffer was added per 1 g of frozen pellet. The clarified lysate was obtained by centrifugation of cell lysate at 10,000 g for 1 h at 4 C. 5 ml of Anti-FLAG M2 Agarose (Sigma) […] was added to the clarified lysate to isolate FlagPRMT5-Mep50. Following batch binding for 3 h at 4 C, Flag resin bound to FlagPRMT5-Mep50 washed with 20 column volumes (CV) of 50 mM Tris 7.5, 200 mM NaCl, 10% glycerol, 0.25 mM TCEP followed by elution of FlagPRMT5-Mep50 complex using 3 CV of 50 mM Tris 7.5, 200 mM NaCl, 10% glycerol, 0.25 mM TCEP supplemented with 200 ug/ml of FLAG Peptide ([…]). […] Peak fractions containing FlagPRMT5-Mep50 complex were concentrated to 1.6 mg/ml, flash frozen in small aliquots using liquid nitrogen and stored at −80° C.

Sequence of PRMT5/MEP50 protein complex (O14744 other isoform, or with tags, fused parts or gaps): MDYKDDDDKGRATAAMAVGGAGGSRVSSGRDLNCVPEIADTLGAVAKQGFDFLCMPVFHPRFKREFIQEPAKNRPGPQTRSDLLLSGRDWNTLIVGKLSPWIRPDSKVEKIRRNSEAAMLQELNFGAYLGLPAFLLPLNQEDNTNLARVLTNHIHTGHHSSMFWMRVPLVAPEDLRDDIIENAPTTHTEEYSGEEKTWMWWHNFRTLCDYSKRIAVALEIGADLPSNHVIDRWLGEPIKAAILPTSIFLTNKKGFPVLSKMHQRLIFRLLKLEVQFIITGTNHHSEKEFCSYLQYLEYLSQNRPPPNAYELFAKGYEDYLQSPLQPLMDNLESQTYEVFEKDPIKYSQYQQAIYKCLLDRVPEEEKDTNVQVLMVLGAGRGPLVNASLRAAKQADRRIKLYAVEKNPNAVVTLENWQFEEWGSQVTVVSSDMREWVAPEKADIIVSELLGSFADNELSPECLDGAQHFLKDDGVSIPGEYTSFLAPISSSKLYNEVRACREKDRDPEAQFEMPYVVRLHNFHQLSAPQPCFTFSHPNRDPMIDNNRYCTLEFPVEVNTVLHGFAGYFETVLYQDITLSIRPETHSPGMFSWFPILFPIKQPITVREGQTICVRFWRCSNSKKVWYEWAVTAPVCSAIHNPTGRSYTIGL
Sequence of PRMT5/MEP50 protein complex (Q9BQA1 whole entry partner): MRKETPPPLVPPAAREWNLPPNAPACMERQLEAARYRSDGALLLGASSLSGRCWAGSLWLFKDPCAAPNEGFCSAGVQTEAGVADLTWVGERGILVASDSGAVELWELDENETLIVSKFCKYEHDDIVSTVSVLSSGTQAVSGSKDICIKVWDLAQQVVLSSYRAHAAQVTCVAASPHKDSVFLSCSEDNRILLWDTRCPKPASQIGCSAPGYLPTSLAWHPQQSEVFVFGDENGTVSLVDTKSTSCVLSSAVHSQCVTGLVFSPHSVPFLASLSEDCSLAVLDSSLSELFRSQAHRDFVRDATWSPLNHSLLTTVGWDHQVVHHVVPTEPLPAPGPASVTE

SMILES	IC50
Cc1ncnc2c1ccn2[C@@H]1O[C@H]([C@H](O)c2ccc3ncn(C(F)F)c3c2)[C@@H](O)[C@H]1O [Example 22, (2R,3S,4R,5R)-2-((R)-(1-(difluoromethyl)-1H-benzo[d]imidazol-6-yl)(hydroxy)methyl)-5-(4-methyl-7H-pyrrolo[2,3-d]pyrimidin-7-yl)tetrahydrofuran-3,4-diol]	108 nM
Cc1ncnc2c1ccn2[C@@H]1O[C@H]([C@H](O)c2ccnc(N(C)C)c2)[C@@H](O)[C@H]1O [Example 14, (2R,3S,4R,5R)-2-((R)-(2-(dimethylamino)pyridin-4-yl)(hydroxy)methyl)-5-(4-methyl-7H-pyrrolo[2,3-d]pyrimidin-7-yl)tetrahydrofuran-3,4-diol]	17 nM
CC[C@@H](O)[C@H]1O[C@@H](n2cnc3c(N)ncnc32)[C@H](O)[C@@H]1O [Example 3, (2R,3R,4S,5R)-2-(6-amino-9H-purin-9-yl)-5-((R)-1-hydroxypropyl)tetrahydrofuran-3,4-diol]	333 nM
C[C@@](O)(c1ccc(F)c(F)c1)[C@H]1O[C@@H](n2ccc3c(N)ncnc32)[C@H](O)[C@@H]1O [Example 103, (2R,3R,4S,5S)-2-(4-amino-7H-pyrrolo[2,3-d]pyrimidin-7-yl)-5-((R)-1-(3,4-difluorophenyl)-1-hydroxyethyl)tetrahydrofuran-3,4-diol]	2 nM
O[C@@H]1[C@H](O)[C@@H]([C@H](O)c2ccc(F)c(F)c2)O[C@H]1n1ccc2c(C(F)F)ncnc21 [Example 97, (2R,3R,4S,5R)-2-(4-(difluoromethyl)-7H-pyrrolo[2,3-d]pyrimidin-7-yl)-5-((R)-(3,4-difluorophenyl)(hydroxy)methyl)tetrahydrofuran-3,4-diol]	30 nM
CCC[C@H](O)[C@H]1O[C@@H](n2cnc3c(N)ncnc32)[C@H](O)[C@@H]1O [Example 6, (2R,3R,4S,5R)-2-(6-amino-9H-purin-9-yl)-5-((S)-1-hydroxybutyl)tetrahydrofuran-3,4-diol]	21100 nM
Cc1ncnc2c1ccn2[C@@H]1O[C@H]([C@H](O)c2ccc(S(C)(=O)=O)cc2)[C@@H](O)[C@H]1O [Example 20, (2R,3S,4R,5R)-2-((R)-hydroxy(4-(methylsulfonyl)phenyl)methyl)-5-(4-methyl-7H-pyrrolo[2,3-d]pyrimidin-7-yl)tetrahydrofuran-3,4-diol]	54 nM
Cc1ncnc2c1ccn2[C@@H]1O[C@H]([C@@H](O)C2CCCC2)[C@@H](O)[C@H]1O [Example 43, (2R,3S,4R,5R)-2-((S)-cyclopentyl(hydroxy)methyl)-5-(4-methyl-7H-pyrrolo[2,3-d]pyrimidin-7-yl)tetrahydrofuran-3,4-diol]	74000 nM
Cc1ncnc2c1ccn2[C@@H]1O[C@@H](c2cnco2)[C@@H](O)[C@H]1O [Example 69, (2R,3R,4S,5R)-2-(4-methyl-7H-pyrrolo[2,3-d]pyrimidin-7-yl)-5-(oxazol-5-yl)tetrahydrofuran-3,4-diol]	1050 nM
Cc1ncnc2c1ccn2[C@@H]1O[C@H]([C@@H](O)C2CCC2)[C@@H](O)[C@H]1O [Example 53, (2R,3S,4R,5R)-2-((S)-cyclobutyl(hydroxy)methyl)-5-(4-methyl-7H-pyrrolo[2,3-d]pyrimidin-7-yl)tetrahydrofuran-3,4-diol]	9230 nM
Cc1ncnc2c1ccn2[C@@H]1O[C@@H]([C@H](O)c2ccccc2)[C@@H](O)[C@H]1O [Example 74, (2S,3S,4R,5R)-2-((R)-hydroxy(phenyl)methyl)-5-(4-methyl-7H-pyrrolo[2,3-d]pyrimidin-7-yl)tetrahydrofuran-3,4-diol]	3140 nM
Cc1ncnc2c1ccn2[C@@H]1O[C@@H](c2ccn(C)n2)[C@@H](O)[C@H]1O [Example 77, (2S,3S,4R,5R)-2-(1-methyl-1H-pyrazol-3-yl)-5-(4-methyl-7H-pyrrolo[2,3-d]pyrimidin-7-yl)tetrahydrofuran-3,4-diol]	24400 nM
CC(C)C[C@H](O)[C@H]1O[C@@H](n2cnc3c(N)ncnc32)[C@H](O)[C@@H]1O [Example 8, (2R,3R,4S,5R)-2-(6-amino-9H-purin-9-yl)-5-((S)-1-hydroxy-3-methylbutyl)tetrahydrofuran-3,4-diol]	17900 nM
Cc1ncnc2c1ccn2[C@@H]1O[C@@H]([C@H](C)O)[C@@H](O)[C@H]1O [Example 89, (2S,3S,4R,5R)-2-((S)-1-hydroxyethyl)-5-(4-methyl-7H-pyrrolo[2,3-d]pyrimidin-7-yl)tetrahydrofuran-3,4-diol]	1730 nM
Cc1ncnc2c1ccn2[C@@H]1O[C@H]([C@@H](O)Cc2ccccc2)[C@@H](O)[C@H]1O [Example 29, (2R,3S,4R,5R)-2-((S)-1-hydroxy-2-phenylethyl)-5-(4-methyl-7H-pyrrolo[2,3-d]pyrimidin-7-yl)tetrahydrofuran-3,4-diol]	200000 nM
Nc1ncnc2c1c(F)cn2[C@@H]1O[C@H](Cc2ccc(F)cc2)[C@@H](O)[C@H]1O [Example 101, (2R,3R,4S,5R)-2-(4-amino-5-fluoro-7H-pyrrolo[2,3-d]pyrimidin-7-yl)-5-(4-fluorobenzyl)tetrahydrofuran-3,4-diol]	30 nM
Cc1ncnc2c1ccn2[C@@H]1O[C@@H]([C@@H](O)c2ccccc2)[C@@H](O)[C@H]1O [Example 73, (2S,3S,4R,5R)-2-((S)-hydroxy(phenyl)methyl)-5-(4-methyl-7H-pyrrolo[2,3-d]pyrimidin-7-yl)tetrahydrofuran-3,4-diol]	23300 nM
Cc1ncnc2c1ccn2[C@@H]1O[C@H]([C@@H](O)C(F)(F)F)[C@@H](O)[C@H]1O [Example 57, (2R,3R,4S,5S)-2-(4-methyl-7H-pyrrolo[2,3-d]pyrimidin-7-yl)-5-((R)-2,2,2-trifluoro-1-hydroxyethyl)tetrahydrofuran-3,4-diol]	6310 nM
Cc1ncnc2c1ccn2[C@@H]1O[C@@H]([C@H](O)c2ccc(F)cc2)[C@@H](O)[C@H]1O [Example 76, (2S,3S,4R,5R)-2-((R)-(4-fluorophenyl)(hydroxy)methyl)-5-(4-methyl-7H-pyrrolo[2,3-d]pyrimidin-7-yl)tetrahydrofuran-3,4-diol]	1810 nM
C[C@](O)(c1ccc(F)c(F)c1)[C@H]1O[C@@H](n2ccc3c(N)ncnc32)[C@H](O)[C@@H]1O [Example 104, (2R,3R,4S,5S)-2-(4-amino-7H-pyrrolo[2,3-d]pyrimidin-7-yl)-5-((S)-1-(3,4-difluorophenyl)-1-hydroxyethyl)tetrahydrofuran-3,4-diol]	147 nM
Cc1ncnc2c1ccn2[C@@H]1O[C@H]([C@H](O)CCc2ccccc2)[C@@H](O)[C@H]1O [Example 30, (2R,3S,4R,5R)-2-((R)-1-hydroxy-3-phenylpropyl)-5-(4-methyl-7H-pyrrolo[2,3-d]pyrimidin-7-yl)tetrahydrofuran-3,4-diol]	752 nM
Cc1ncnc2c1ccn2[C@@H]1O[C@H]([C@H](O)c2ccco2)[C@@H](O)[C@H]1O [Example 54, (2S,3S,4R,5R)-2-((S)-furan-2-yl(hydroxy)methyl)-5-(4-methyl-7H-pyrrolo[2,3-d]pyrimidin-7-yl)tetrahydrofuran-3,4-diol]	24 nM
CCC[C@@H](O)[C@H]1O[C@@H](n2cnc3c(N)ncnc32)[C@H](O)[C@@H]1O [Example 5, (2R,3R,4S,5R)-2-(6-amino-9H-purin-9-yl)-5-((R)-1-hydroxybutyl)tetrahydrofuran-3,4-diol]	159 nM
Cc1ncnc2c1ccn2[C@@H]1O[C@H]([C@H](O)C2CC2)[C@@H](O)[C@H]1O [Example 46, (2R,3S,4R,5R)-2-((R)-cyclopropyl(hydroxy)methyl)-5-(4-methyl-7H-pyrrolo[2,3-d]pyrimidin-7-yl)tetrahydrofuran-3,4-diol]	367 nM
Cc1ncnc2c1ccn2[C@@H]1OC([C@H](O)c2cc(F)cc(C(F)(F)F)c2)[C@@H](O)[C@H]1O (stereo partly drawn) [Example 17, (3S,4R,5R)-2-((3-fluoro-5-(trifluoromethyl)phenyl)(hydroxy)methyl)-5-(4-methyl-7H-pyrrolo[2,3-d]pyrimidin-7-yl)tetrahydrofuran-3,4-diol]	2270 nM
